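Each compound was tested at five concentrations against cells in 96-well plates for 48 hours. The concentration for full growth arrest is given as TGI.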
Columns and labels:
Assay in all cases: growth of human tumour cells (NCI), 48 h
SNB-19 CNS = system: SNB-19 CNS
SF-295 CNS = system: SF-295 CNS
HCT-15 colon = system: HCT-15 colon
CAKI-1 renal = system: CAKI-1 renal
SK-MEL-2 melanoma = system: SK-MEL-2 melanoma
HL-60(TB) leukemia = system: HL-60(TB) leukemia
IGROV1 ovarian = system: IGROV1 ovarian
NCI-H226 lung = system: NCI-H226 lung
NCI-H23 lung = system: NCI-H23 lung
MDA-N = system: MDA-N
HOP-92 NSCLC = system: HOP-92 NSCLC
ACHN renal = system: ACHN renal
LOX IMVI melanoma = system: LOX IMVI melanoma
NCI-H522 lung = system: NCI-H522 lung
RPMI-8226 leukemia = system: RPMI-8226 leukemia
SR leukemia = system: SR leukemia
MCF7 breast = system: MCF7 breast
HCT-116 colon = system: HCT-116 colon
SN12C renal = system: SN12C renal
HT29 colon = system: HT29 colon

| Compound | TGI (SNB-19 CNS) [µM] | TGI (SF-295 CNS) [µM] | TGI (HCT-15 colon) [µM] | TGI (CAKI-1 renal) [µM] | TGI (SK-MEL-2 melanoma) [µM] | TGI (HL-60(TB) leukemia) [µM] | TGI (IGROV1 ovarian) [µM] | TGI (NCI-H226 lung) [µM] | TGI (NCI-H23 lung) [µM] | TGI (MDA-N) [µM] | TGI (HOP-92 NSCLC) [µM] | TGI (ACHN renal) [µM] | TGI (LOX IMVI melanoma) [µM] | TGI (NCI-H522 lung) [µM] | TGI (RPMI-8226 leukemia) [µM] | TGI (SR leukemia) [µM] | TGI (MCF7 breast) [µM] | TGI (HCT-116 colon) [µM] | TGI (SN12C renal) [µM] | TGI (HT29 colon) [µM] |
| --- | --- | --- | --- | --- | --- | --- | --- | --- | --- | --- | --- | --- | --- | --- | --- | --- | --- | --- | --- | --- |
| O=C1NC(N/N=C\c2ccccc2)=N/C1=C/c1ccccc1 | 73.6 | > 100 | > 100 | 87 | > 100 | > 100 | > 100 | 50.2 | 58.7 | > 100 | 66.6 | 34.5 | > 100 | 87 | > 100 | 53.9 | > 100 | > 100 | > 100 | > 100 |
| CC(C)OP(=O)(OC(C)C)C(C)(C)O | > 100 | > 100 | > 100 | > 100 | > 100 | > 100 | > 100 | > 100 | > 100 | > 100 | > 100 | > 100 | > 100 | > 100 | > 100 | > 100 | > 100 | > 100 | > 100 | > 100 |
| O=CNc1ccccc1OCCOc1ccccc1NC=O | > 100 | > 100 | > 100 | > 100 | > 100 | > 100 | > 100 | > 100 | > 100 | > 100 | > 100 | > 100 | > 100 | > 100 | > 100 | > 100 | > 100 | > 100 | > 100 | > 100 |
| CN=c1sc2nc(C#N)c(C#N)nc2n1C | > 62.6 | 45.5 | 41.2 | 60.3 | 40.7 | > 40.4 | 53.4 | 38.8 | 37.9 | > 58.3 | 37.7 | 60.2 | 46.5 | 31.5 | > 84.9 | > 79.6 | 38.1 | 36 | > 100 | 26 |
| CC(C)(C)OC(=O)CCCCCNC(=O)CCCCCNC(=O)CCC(CN(CC(=O)OCc1ccccc1)CC(=O)OCc1ccccc1)N(CC(=O)OCc1ccccc1)CC(=O)OCc1ccccc1 (stereo not given) | > 100 | > 100 | > 100 | > 100 | > 100 | > 100 | > 100 | > 100 | > 100 | > 100 | > 100 | > 100 | > 100 | > 100 | > 100 | > 100 | > 100 | > 100 | > 100 | > 100 |
| CCOP(=O)(O)C(Nc1ccc(N=Nc2ccccc2)cc1)c1cccc(C(Nc2ccc(N=Nc3ccccc3)cc2)P(=O)(O)OCC)c1 (stereo not given) | > 100 | 58.1 | > 100 | > 100 | > 100 | 69.7 | > 100 | > 100 | > 100 | > 100 | > 100 | > 100 | 77.4 | > 100 | 86.5 | > 100 | > 100 | > 100 | > 100 | 40.9 |
| O=[N+]([O-])c1cccc2nccc(NCCN3CCOCC3)c12 | > 100 | 25.6 | > 46.9 | 20.2 | 42.6 | > 34.6 | 45.1 | 17 | > 65.1 | 61.4 | > 100 | > 59.4 | 46.6 | 22 | > 63.5 | > 31.4 | 25.5 | 30.5 | > 48 | 44.4 |
| O=C1NC2(CCNCC2)Oc2ccccc21 | > 100 | > 100 | > 100 | > 100 | > 100 | > 100 | > 100 | > 100 | > 100 | > 100 | > 100 | > 100 | > 100 | > 100 | > 100 | > 100 | > 100 | > 100 | > 100 | > 100 |
| CC(C)(C)OC(=O)N1CCCC1C(=O)NC(c1ccccc1)c1ccccc1 (stereo not given) | > 100 | > 100 | > 100 | > 100 | > 100 | > 100 | > 100 | > 100 | > 100 | > 100 | > 100 | > 100 | > 100 | > 100 | > 100 | > 100 | > 100 | > 100 | > 100 | > 100 |
| O=[N+]1[C@H](c2ccccc2)[C@H](c2ccccc2)N1[O-] | 35.1 | 38.6 | 24.7 | 19.7 | 32.8 | 5.48 | 26.8 | 38.9 | 32 | 30.7 | 30.2 | 32.3 | 29.2 | 24.2 | 25.4 | 37.7 | 30.5 | 30.6 | 32.4 | 33.1 |
| COc1ccc2nc3ccc(OC)cc3c(SCCCl)c2c1 | > 85.5 | > 100 | > 100 | 66.8 | > 85.1 | > 21.1 | > 100 | > 100 | > 100 | > 100 | > 42.2 | > 100 | 21.3 | > 100 | 10.6 | 15.6 | > 47 | > 43.5 | > 100 | > 52.4 |
| O=C1OC([C@H](O)c2cccnc2)c2ccccc21 (stereo not given in full) | > 10 | > 10 | > 10 | > 10 | > 10 | > 10 | > 10 | > 10 | > 10 | > 10 | > 10 | > 10 | > 10 | > 10 | > 10 | > 10 | > 10 | > 10 | > 10 | > 10 |
| COc1cc2cc(C(=O)N3CC(CCl)c4ccc([N+](C)(C)Cc5ccccc5[N+](=O)[O-])cc43)[nH]c2c(OC)c1OC (stereo not given) | 9.76 | 36.5 | > 100 | 14.5 | 4.44 | > 100 | 17.7 | 19.5 | 4.9 | 6.49 | > 29.8 | > 100 | 17.1 | 0.677 | 5.3 | 4.39 | > 100 | > 100 | 26.4 | > 21.8 |
| COc1cc(OC)c2c(=O)c3cccc(C)c3n(C)c2c1 | > 100 | > 100 | > 100 | > 100 | > 100 | > 100 | > 100 | > 100 | > 100 | > 100 | > 100 | > 100 | > 100 | > 100 | 58.9 | > 100 | > 100 | > 100 | > 100 | > 100 |
| COC(=O)C(=O)Nc1cc2c3c(c1)Oc1cccc4c1C3(C)c1c(cccc1O2)O4 | > 100 | > 100 | > 100 | > 100 | > 100 | 14.2 | > 100 | 44.8 | > 100 | > 100 | > 100 | > 100 | > 100 | > 100 | > 100 | > 100 | > 100 | > 100 | > 100 | > 40.6 |
| CCCCCCCCCCCCCCCCNC(=O)/C(=C\c1ccc(Cl)c(Cl)c1)NC(=O)c1ccccc1 | > 100 | > 100 | > 100 | > 100 | > 100 | 22 | 41.4 | 56.8 | 52.6 | > 100 | 34.7 | > 100 | 54.2 | > 100 | 58.5 | 90.7 | 59.1 | > 100 | 81.5 | > 100 |

— PubChem BioAssay (NCI)
